Series [1] is described as follows: Parallel artificial membrane permeability assay (PAMPA). The class given is in vitro ADME. Conditions: passive permeability. An excerpt:
(§1) Preliminary In Vitro Pharmacokinetic Assays.
(PAMPA measures passive passage across an artificial lipid membrane.)

Series [2] concerns the target T1, BCRP (Homo sapiens, UniProt Q9UNQ0).
T1 sequence (Q9UNQ0 1-655): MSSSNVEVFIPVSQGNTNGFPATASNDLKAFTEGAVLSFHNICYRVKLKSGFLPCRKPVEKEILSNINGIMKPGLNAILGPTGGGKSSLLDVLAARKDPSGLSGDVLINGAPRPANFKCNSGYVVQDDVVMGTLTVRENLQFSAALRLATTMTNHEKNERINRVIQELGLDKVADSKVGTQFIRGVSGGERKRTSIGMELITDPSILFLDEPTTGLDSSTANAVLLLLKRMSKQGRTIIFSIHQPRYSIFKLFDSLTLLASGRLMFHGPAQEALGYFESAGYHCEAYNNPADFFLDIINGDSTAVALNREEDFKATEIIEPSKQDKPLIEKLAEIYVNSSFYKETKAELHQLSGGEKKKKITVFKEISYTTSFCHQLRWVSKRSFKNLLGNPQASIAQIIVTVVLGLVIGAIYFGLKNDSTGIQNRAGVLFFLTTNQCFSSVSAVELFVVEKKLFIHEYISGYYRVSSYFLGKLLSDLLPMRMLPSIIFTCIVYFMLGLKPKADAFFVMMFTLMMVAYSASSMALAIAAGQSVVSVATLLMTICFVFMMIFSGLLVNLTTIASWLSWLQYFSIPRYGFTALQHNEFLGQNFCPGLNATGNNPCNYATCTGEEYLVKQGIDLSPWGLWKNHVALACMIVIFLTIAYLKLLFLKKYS
Kind of series: BCRP efflux. Conditions: Table 9. The class given is in vitro ADME.
Text: as §1

Series [3] deals with primary murine Hh-dependent MB cell line (MERP). Kind of series: Antiproliferation in primary Hh-dependent MB cells (MERP). The class given is cell-based. Conditions: Mus musculus, Table 6. Here is the method: Secondary In Vitro Evaluation. Based on their activity in ASZ cells, several compounds were evaluated further in a primary murine Hh-dependent MB cell line (MERP).
(§2) General Information for Cell Culture Studies Protocols for general cell culture, qPCR, and Hh inhibition ASZ cells are as previously described.
(§3) General Information for Cell Culture Studies. Protocols for general cell culture, qPCR, and Hh inhibition ASZ cells are as previously described.

The target of series [4] is P-glycoprotein (P-gp) (Homo sapiens, UniProt P08183). In words: P-glycoprotein (P-gp) efflux. The class given is in vitro ADME. Conditions: for P-gp: Table 9.
Text: as §1

Series [5] can be described thus: Solubility.
Series [6] in a line: Metabolic half-life and clearance (HLM). The class given is in vitro ADME.
Series [7] concerns Hh pathway. Conditions: background; read-out: IC50 (Hh pathway inhibitor); cited from earlier work.
The test system of series [8] is Gli1 mRNA levels in the murine BCC cell line ASZ-001 (Hh pathway). Kind of series: Hh pathway inhibition: endogenous Gli1 mRNA (qRT-PCR) in ASZ-001 cells. The class given is cell-based. Conditions: Mus musculus. Here is the method: Initial Hh inhibition studies.
as §2, §3
Gene Expression Assay Protocol (ASZ-001): Cells are seeded (10,000 cells per well; 100 μL total volume per well) in a 96-well tissue culture plate. After 24 h of incubation (37° C., 5% CO2), growth media was removed and replaced with low FBS media. Cells were incubated for an additional 24 h. After this time, DMSO (vehicle control) and liposomes (Aqueous Solution) were added to the wells. […]
Rt-PCR Protocol: Following treatment and incubation periods, both RNA extraction and cDNA synthesis were performed using a TaqMan Cells-to-CT (fast) kit. cDNA synthesis utilized a BioRad MyCycler and was programmed according to the manufacturer's instructions. Quantitative RT-PCR was performed on an ABI 7500 system and made use of the following TaqMan Gene Expression Probes: mouse ActB (Mm00607939_s1) and mouse Gli1 (Mm00494654_m1). Relative gene expression levels were computed via ΔΔCT method using GraphPad Prism. Corresponding IC50 values were calculated as mean±SEM for at least three separate experiments performed in triplicate.
Background: Quantitative PCR measures a nucleic acid by following its amplification.

Series [9] has the same test system. Conditions: background, read-out: IC50 (Hh signaling); cited from earlier work.

Structures are written as SMILES. ≈ marks a conversion by molar mass, not a printed value. Read-outs that look alike come from different tables or passages of the source.

P-glycoprotein (P-gp), sequence (P08183 whole entry): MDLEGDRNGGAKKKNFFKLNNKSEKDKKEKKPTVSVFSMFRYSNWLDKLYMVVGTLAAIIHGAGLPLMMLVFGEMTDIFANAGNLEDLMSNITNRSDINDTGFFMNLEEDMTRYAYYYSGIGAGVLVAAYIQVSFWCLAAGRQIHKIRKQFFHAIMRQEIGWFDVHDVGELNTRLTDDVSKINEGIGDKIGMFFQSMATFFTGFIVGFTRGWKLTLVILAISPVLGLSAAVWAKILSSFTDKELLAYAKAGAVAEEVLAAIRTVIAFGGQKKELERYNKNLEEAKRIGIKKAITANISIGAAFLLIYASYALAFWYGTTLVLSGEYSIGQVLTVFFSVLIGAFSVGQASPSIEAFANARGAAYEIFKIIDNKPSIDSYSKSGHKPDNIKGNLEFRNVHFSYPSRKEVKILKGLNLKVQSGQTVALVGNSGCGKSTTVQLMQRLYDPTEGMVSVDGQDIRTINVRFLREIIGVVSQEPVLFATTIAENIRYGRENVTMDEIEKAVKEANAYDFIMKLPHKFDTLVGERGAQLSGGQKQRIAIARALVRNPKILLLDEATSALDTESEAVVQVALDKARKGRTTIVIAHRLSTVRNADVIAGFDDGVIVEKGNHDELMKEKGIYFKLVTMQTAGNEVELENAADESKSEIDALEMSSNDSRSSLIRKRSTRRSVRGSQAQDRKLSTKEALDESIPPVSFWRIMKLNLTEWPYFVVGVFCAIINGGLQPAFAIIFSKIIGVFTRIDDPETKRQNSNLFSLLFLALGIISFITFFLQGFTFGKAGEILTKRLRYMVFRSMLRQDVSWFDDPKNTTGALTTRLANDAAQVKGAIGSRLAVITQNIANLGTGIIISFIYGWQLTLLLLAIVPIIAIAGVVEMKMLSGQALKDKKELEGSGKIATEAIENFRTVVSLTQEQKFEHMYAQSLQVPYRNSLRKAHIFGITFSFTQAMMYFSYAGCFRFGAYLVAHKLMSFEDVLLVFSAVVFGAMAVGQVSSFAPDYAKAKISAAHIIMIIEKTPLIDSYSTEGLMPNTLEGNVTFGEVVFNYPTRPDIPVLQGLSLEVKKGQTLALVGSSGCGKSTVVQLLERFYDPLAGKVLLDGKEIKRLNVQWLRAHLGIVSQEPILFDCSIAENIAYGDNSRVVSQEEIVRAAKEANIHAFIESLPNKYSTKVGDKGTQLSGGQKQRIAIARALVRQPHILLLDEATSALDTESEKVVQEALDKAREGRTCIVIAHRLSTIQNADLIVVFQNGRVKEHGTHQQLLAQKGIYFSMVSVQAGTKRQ

The IC50 is the concentration that gives 50% inhibition. As usually defined, the Solubility is the concentration that dissolves in the medium under given conditions. Lower therefore signals a poorly soluble substance. In the case of `C[C@]1(c2ccc(Cl)cc2Cl)OC[C@@H](COc2ccc(N3CCN(c4ccc(NC(=O)c5cccnc5)cc4)CC3)cc2)O1` [Compound 18, N-(4-(4-(4-(((2S,4R)-2-(2,4-dichlorophenyl)-2-methyl-1,3-dioxolan-4-yl)methoxy)phenyl)piperazin-1-yl)phenyl)nicotinamide], the PAMPA entry in series [1] was “Poor”. Also, the BCRP result in series [2] was “No”. Besides, in series [3], the IC50 is 1100 ± 600 nM. For the same molecule, the P-gp entry in [4] is reported as “No”. Moreover, the “Solubility” value in series [5] amounted to 0.0069 µM (≈ 0.00427 µg/mL). For the same molecule, the “T1/2 (HLM, min)” value in series [6] is reported as “significantly different half-lives”.

As to `CCC(C)n1ncn(-c2ccc(N3CCN(c4ccc(OCC5COC(Cn6cncn6)(c6ccc(Cl)cc6Cl)O5)cc4)CC3)cc2)c1=O` (centres unmarked) [ITZ, Itraconazole, reference compound], the PAMPA result in series [1] is “Moderate”. Moreover, the IC50 was 690 nM in series [7]; 0.11 ± 0.025 µM in series [8] (ASZ001, 48 h, read-out: IC50 (μM) 48 h); 0.14 ± 0.012 µM in series [8] (ASZ001, 96 h, read-out: IC50 (μM) 96 h). Further, the BCRP result in series [2] is on record as “No”. Further, in series [4], the P-gp entry is listed as “No”. The “Solubility” value in series [5] came to 0.8 µM (≈ 0.565 µg/mL). In [6], the “T1/2 (HLM, min)” value is on record as 27.0 ± 6.2 min.

With `CC[C@@H]([C@H](C)O)n1ncn(-c2ccc(N3CCN(c4ccc(OC[C@@H]5CO[C@@](Cn6cncn6)(c6ccc(F)cc6F)C5)cc4)CC3)cc2)c1=O` [PSZ, Posaconazole], the IC50 in series [9] was 540 nM; in series [8] (ASZ001, 48 h), 0.5 ± 0.1 µM. Moreover, the “P-gp (Efflux)” value in [4] (Table P1) is “substrate for P-gp”.

These data come from patent US11390613B2, “Azole analogues and methods of use thereof” (UNIVERSITY OF CONNECTICUT, priority 2017, dated 2022).
